Laboratory results: patent US8476264B2, “N-(3-(2-amino-6,6-difluoro-4,4A,5,6,7,7A-hexahydro-cyclopenta[E][1,3]oxazin-4-yl)-phenylamides as BACE1 inhibitors” (Hoffmann-La Roche Inc., priority 2011, dated 2013)

How the values were obtained:
[1] = Detection of glutathione conjugates; assay type: in vitro ADME, human; set-up: key: NF: in vitro no significant adduct formation relative to control; details: in vitro, relative to control
Description: Detection of Glutathione Conjugates
The assay conditions for the detection of glutathione conjugates follow the procedure described by C. M. Dieckhaus et al.

BACE1 = molecular target: T1, BACE1 (Homo sapiens, UniProt P56817); assay: Cellular Aβ-lowering assay (Aβ40 ELISA); assay type: cell-based; details: HEK293 cells stably expressing human APP wt (APP695); Aβ40 in supernatant after 18-20 hrs; read-out: BACE1 cell act. Aβ40 IC50
T1 construct: Human HEK293 cells which are stably transfected with a vector expressing a cDNA of the human APP wt gene (APP695); endogenous in cells; host or cells: HEK293 stably transfected with human APP695 wt
Procedure: Cellular Aβ-Lowering Assay:
Human HEK293 cells which are stably transfected with a vector expressing a cDNA of the human APP wt gene (APP695) were used to assess the potency of the compounds in a cellular assay. The cells were seeded in 96-well microtiter plates in cell culture medium (Iscove, plus 10% (v/v) fetal bovine serum, glutamine, penicillin/streptomycin) to about 80% confluence and the compounds were added at a 10× concentration in 1/10 volume of medium without FCS containing 8% DMSO (final concentration of DMSO was kept at 0.8% v/v). After 18-20 hrs incubation at 37° C. and 5% CO2 in a humidified incubator the culture supernatant was harvested for the determination of Aβ40 concentrations. 96 well ELISA plates (e.g., Nunc MaxiSorb) were coated with monoclonal antibody which specifically recognize the C-terminal end of Aβ40 (Brockhaus et al., NeuroReport 9, 1481-1486; 1998). After blocking of non-specific binding sites with e.g. 1% BSA and washing, the culture supernatants were added in suitable dilutions together with a horseradish peroxidase-coupled Aβ detection antibody (e.g., antibody 4G8, Senetek, Maryland Heights, Mo.) and incubated for 5 to 7 hrs. Subsequently the wells of the microtiter plate were washed extensively with Tris-buffered saline containing 0.05% Tween 20 and the assay was developed with tetramethylbenzidine/H2O2 in citric acid buffer. After stopping the reaction with one volume 1 N H2SO4 the reaction was measured in an ELISA reader at 450 nm wavelength. The concentrations of Aβ in the culture supernatants were calculated from a standard curve obtained with known amounts of pure Aβ peptide.

CYP2D6 = molecular target: T2, CYP2D6 (Homo sapiens, UniProt P10635); assay: CYP inhibition assay, CYP2D6; assay type: in vitro ADME; details: human liver microsomes, dextromethorphan O-demethylase; read-out: CYP IC50 2D6
T2 construct: 0.2 mg/ml pooled human liver microsomes; from tissue; host or cells: pooled human liver microsomes
Procedure: (§1) Inhibition of cytochromes P450 (CYPs) 2C9, 2D6 and 3A4 was assessed using human liver microsomes and CYP-selective substrate metabolism reactions. 50 μl incubations were made up containing (finally) 0.2 mg/ml pooled human liver microsomes, 5 μM substrate (diclofenac for CYP2C9 [4′ hydroxylase], dextromethorphan for CYP2D6 [O-demethylase] or midazolam for CYP3A4 [1′ hydroxylase]), 0.25 μL DMSO containing test inhibitor and NADPH regenerating system. Test inhibitor concentrations of 50, 16.7, 5.6, 1.9, 0.6 and 0.2 μM were assessed in singlicate. Incubations were pre-warmed to 37° C. for 10 minutes before initiation by addition of NADPH regenerating system. Incubations were quenched after 5 minutes (20 minutes for dextromethorphan) by addition of 50 μl cold acetonitrile containing 20 ng/ml 4-OH-diclofenac-13C6, 20 ng/mL dextrorphan-D3 and 20 ng/mL 1-OH-midazolam-D4. Quenched incubates were stored at −20° C. for at least 1 hour before centrifugation (20,000×g, 20 minutes). Supernatants were removed and diluted 1:1 with water prior to analysis using a RapidFire sample injector system and API4000 mass spectrometer. Peak areas for substrate, metabolite and stable-labelled metabolite standard were determined using MS/MS. The peak area ratios between the metabolite generated by the enzymatic reaction and the internal standard were used in subsequent calculations. The percentage of (DMSO) control activity was calculated for each incubate and IC50 values estimated by non-linear regression. Sulfaphenazole, quinidine or ketoconazole were tested in each CYP2C9, CYP2D6 or CYP3A4 inhibition experiment, respectively, to ensure assay sensitivity and reproducibility. (Validated assays for human cytochrome P450 activities, R. L. Walsky and R. S. Obach, Drug Metabolism and Disposition 32: 647-660, 2004. and S. Fowler and H. Zhang, The AAPS Journal, Vol. 10, No. 2, 410-424, 2008.)

CYP2C9 = molecular target: T3, CYP2C9 (Homo sapiens, UniProt P11712); assay: CYP inhibition assay, CYP2C9; assay type: in vitro ADME; details: human liver microsomes, diclofenac 4' hydroxylase; read-out: CYP IC50 2C9
T3 construct: 0.2 mg/ml pooled human liver microsomes; from tissue; host or cells: pooled human liver microsomes
Procedure: as §1

[2] = molecular target: T4, cathepsin D (from human liver) (Homo sapiens, UniProt P07339); assay: Cathepsin D fluorescent substrate kinetic assay; assay type: biochemical; details: pH 5.5, substrate […]-MR121
T4 construct: cathepsin D (from human liver, Calbiochem) diluted in assay buffer; purchased Calbiochem; host or cells: purified from human liver
Description: (§2) Cathepsin D and Cathepsin E Fluorescent Substrate Kinetic Assays
(§3) The MR121 fluorescence assays described below are based on the fact that MR121 forms a non-fluorescent ground state complex with tryptophan. In solution this formation occurs at millimolar concentrations of tryptophan. The mechanism can be used to design a generic biochemical assay for proteases. A substrate peptide is labeled at the N-terminus with tryptophan and at the C-terminus with the fluorophore MR121 (for cathepsin D the 10 amino acid peptide […]-MR121 was used; for cathepsin E, MR121-[…] was used). In absence of protease activity, the substrates remain intact and the MR121 fluorescence is reduced by the high local Trp-concentration. If the substrates are cleaved by the enzymes the MR121 fluorescence is recovered.
(§4) The fluorescent substrate cathepsin D and cathepsin E kinetic assays were performed at room temperature in 384-well microtiter plates (black with clear flat bottom, non binding surface plates from Corning) in a final volume of 51 μl. The test compounds were serially diluted in DMSO (15 concentrations, ⅓ dilution steps) and 1 μl of diluted compounds were mixed for 10 min with 40 μl of cathepsin D (from human liver, Calbiochem) diluted in assay buffer (100 mM sodium acetate, 0.05% BSA, pH 5.5; final concentration: 200 nM) or with 40 μl of recombinant human cathepsin E (R&D Systems) diluted in assay buffer (100 mM sodium acetate, 0.05% BSA, pH 4.5; final concentration: 0.01 nM). After addition of 10 μl of the cathepsin D substrate […]-MR121 diluted in cathepsin D assay buffer (final concentration: 300 nM) or […] cathepsin E substrate MR121-[…] diluted in cathepsin E assay buffer (final concentration: 300 nM), the plates were strongly shaken for 2 minutes. The enzymatic reaction was followed in a plate: vision reader (Perkin Elmer) (excitation wavelength: 630 nm; emission: 695 nm) for at least 30 minutes in a kinetic measurement detecting an increase of MR121 fluorescence during the reaction time. The slope in the linear range of the kinetic was calculated and the IC50 of the test compounds were determined using a four parameter equation for curve fitting.

in vivo effect = details: % of control @ 30 mg/kg p.o.
[3] = molecular target: T5, recombinant human cathepsin E (Homo sapiens, UniProt P14091); assay: Cathepsin E fluorescent substrate kinetic assay; assay type: biochemical; details: pH 4.5, substrate MR121-[…]
T5 construct: purchased R&D Systems
T5 sequence (P14091 54-396): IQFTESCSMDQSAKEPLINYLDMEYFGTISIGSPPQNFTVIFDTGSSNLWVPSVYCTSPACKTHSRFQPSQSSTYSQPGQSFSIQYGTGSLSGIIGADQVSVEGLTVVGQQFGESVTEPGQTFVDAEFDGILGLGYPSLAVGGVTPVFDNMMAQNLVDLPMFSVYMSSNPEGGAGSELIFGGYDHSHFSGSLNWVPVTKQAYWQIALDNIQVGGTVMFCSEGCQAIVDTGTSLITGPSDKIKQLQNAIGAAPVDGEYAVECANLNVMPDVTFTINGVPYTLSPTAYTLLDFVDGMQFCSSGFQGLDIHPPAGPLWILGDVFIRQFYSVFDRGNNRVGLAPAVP
Description: as §2, §3, §4

CYP3A4 = molecular target: T6, CYP3A4 (Homo sapiens, UniProt P08684); assay: CYP inhibition assay, CYP3A4; assay type: in vitro ADME; details: human liver microsomes, midazolam 1' hydroxylase; read-out: CYP IC50 3A4
T6 construct: 0.2 mg/ml pooled human liver microsomes; from tissue; host or cells: pooled human liver microsomes
Procedure: as §1

hERG channel = molecular target: T7, hERG channel (Homo sapiens, UniProt Q12809); assay: PatchXpress hERG inhibition assay; assay type: cell-based; details: @ 1 μM; CHO cells transfected with hERG, automated patch clamp
T7 construct: expressed in transfected cells; host or cells: CHO cells
Procedure: PatchXpress hERG Inhibition Assay
The detailed method to quantify hERG channel inhibition by the automated patch clamp system PatchXpress® 7000A (Molecular Devices, Sunnyvale, Calif.) has been described by Guo et al. (J of Pharmacol & Tox Methods, (2005) 52(1):123-35). In brief, Chinese hamster ovary (CHO) cells transfected with the human ether-a-go-go-related gene (hERG) was cultured in Ex-cell 302 media supplemented with 10% fetal bovine serum, 2 mM glutamine and 0.25 mg/ml geneticin and maintained in a CO2 incubator at 37° C. For patch clamp electrophysiology, the external buffer contained (in mM): 150 NaCl, 10 Hepes, 4 KCl, 1.2 CaCl2, 1 MgCl2, pH 7.4 adjusted with […] and the internal recording solution contained (in mM): 140 KCl, 6 EGTA, 5 Hepes, MgCl2, 5 ATP-Na2, pH 7.2 adjusted with KOH. Once the cell was loaded in the recording chamber and formed a giga ohm seal with the planar glass electrodes (Sealchip™), a whole-cell configuration was achieved by rupturing the cell membrane. The membrane potential was then clamped at −80 mV and the hERG channel activated by a 1-second depolarizing pulse delivered at 0.1 Hz, the hERG current was measured during the 500 ms-repolarizing pulse to −40 mV. After an acceptable hERG current recording was obtained, the cell was first exposed to 0.3% DMSO as the vehicle control, followed by the test article in three ascending, full-log interval concentrations and finally E-4031 at 1 μM (as the positive control) to block the hERG current completely. […] The inhibition of hERG current at each concentration was normalized to that recorded in the vehicle control, and fitted with Hill equation to calculate IC20 and/or IC50.

T4 sequence (P07339 65-162 limits assumed): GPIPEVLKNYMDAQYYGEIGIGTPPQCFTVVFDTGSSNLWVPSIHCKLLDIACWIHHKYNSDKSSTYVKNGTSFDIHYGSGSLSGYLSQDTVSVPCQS
T4 sequence (P07339 169-412 limits assumed): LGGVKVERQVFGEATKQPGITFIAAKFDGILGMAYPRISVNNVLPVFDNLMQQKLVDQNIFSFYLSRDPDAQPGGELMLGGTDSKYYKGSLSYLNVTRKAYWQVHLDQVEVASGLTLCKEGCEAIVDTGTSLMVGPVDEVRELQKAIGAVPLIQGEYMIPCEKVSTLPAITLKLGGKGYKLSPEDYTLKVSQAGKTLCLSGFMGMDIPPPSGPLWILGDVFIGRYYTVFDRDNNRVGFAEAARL
T3 sequence (P11712 whole entry): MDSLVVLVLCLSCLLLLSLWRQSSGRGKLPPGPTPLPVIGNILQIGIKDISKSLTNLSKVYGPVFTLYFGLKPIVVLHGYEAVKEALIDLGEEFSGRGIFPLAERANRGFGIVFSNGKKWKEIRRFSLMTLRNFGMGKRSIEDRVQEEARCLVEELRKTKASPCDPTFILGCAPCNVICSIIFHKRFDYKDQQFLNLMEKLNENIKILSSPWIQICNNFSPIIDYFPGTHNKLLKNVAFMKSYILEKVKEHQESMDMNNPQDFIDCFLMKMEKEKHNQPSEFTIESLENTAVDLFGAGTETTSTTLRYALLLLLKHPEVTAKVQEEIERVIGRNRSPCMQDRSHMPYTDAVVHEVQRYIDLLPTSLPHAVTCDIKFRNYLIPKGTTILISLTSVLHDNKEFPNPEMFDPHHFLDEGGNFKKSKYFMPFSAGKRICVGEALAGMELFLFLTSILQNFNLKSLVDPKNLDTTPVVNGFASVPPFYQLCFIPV
T2 sequence (P10635 whole entry): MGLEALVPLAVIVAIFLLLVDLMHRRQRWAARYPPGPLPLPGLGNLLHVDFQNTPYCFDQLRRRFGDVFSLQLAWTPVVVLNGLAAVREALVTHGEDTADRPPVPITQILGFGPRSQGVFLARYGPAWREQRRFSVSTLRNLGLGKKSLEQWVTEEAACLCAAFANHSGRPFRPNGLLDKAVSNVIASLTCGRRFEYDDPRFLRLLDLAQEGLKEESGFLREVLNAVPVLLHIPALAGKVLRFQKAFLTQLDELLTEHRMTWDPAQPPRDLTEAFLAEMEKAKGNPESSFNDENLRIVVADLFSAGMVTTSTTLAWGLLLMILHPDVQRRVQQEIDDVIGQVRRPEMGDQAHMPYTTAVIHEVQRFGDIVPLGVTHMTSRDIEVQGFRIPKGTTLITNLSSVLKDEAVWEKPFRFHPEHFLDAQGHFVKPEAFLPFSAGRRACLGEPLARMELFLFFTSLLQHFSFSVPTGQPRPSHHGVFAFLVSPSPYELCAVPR
T6 sequence (P08684 whole entry): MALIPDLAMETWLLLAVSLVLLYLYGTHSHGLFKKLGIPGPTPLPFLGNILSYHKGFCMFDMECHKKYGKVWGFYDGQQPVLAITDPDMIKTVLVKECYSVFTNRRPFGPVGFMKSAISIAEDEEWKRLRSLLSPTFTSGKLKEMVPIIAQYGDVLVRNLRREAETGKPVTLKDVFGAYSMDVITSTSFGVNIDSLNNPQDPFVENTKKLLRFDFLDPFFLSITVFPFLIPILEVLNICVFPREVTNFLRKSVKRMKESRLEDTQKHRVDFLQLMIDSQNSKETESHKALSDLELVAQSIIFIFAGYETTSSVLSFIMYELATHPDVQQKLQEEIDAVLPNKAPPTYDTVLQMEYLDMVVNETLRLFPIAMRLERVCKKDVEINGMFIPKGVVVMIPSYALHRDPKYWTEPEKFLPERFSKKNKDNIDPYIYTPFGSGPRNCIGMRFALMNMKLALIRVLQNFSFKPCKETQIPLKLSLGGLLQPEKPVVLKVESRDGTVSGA
T1 sequence (P56817 46-501): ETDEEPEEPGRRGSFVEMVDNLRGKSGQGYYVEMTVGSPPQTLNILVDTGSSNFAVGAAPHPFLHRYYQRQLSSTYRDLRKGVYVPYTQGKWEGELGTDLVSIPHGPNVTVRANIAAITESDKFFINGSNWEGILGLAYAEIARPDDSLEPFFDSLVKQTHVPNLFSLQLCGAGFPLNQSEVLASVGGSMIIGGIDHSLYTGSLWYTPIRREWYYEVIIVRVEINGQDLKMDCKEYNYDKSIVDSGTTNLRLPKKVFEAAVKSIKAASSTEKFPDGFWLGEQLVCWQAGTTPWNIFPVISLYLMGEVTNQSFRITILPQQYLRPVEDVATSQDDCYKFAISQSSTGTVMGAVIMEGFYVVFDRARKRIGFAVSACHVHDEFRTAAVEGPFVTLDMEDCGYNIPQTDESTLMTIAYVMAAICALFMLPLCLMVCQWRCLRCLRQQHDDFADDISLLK
T7 sequence (Q12809 whole entry): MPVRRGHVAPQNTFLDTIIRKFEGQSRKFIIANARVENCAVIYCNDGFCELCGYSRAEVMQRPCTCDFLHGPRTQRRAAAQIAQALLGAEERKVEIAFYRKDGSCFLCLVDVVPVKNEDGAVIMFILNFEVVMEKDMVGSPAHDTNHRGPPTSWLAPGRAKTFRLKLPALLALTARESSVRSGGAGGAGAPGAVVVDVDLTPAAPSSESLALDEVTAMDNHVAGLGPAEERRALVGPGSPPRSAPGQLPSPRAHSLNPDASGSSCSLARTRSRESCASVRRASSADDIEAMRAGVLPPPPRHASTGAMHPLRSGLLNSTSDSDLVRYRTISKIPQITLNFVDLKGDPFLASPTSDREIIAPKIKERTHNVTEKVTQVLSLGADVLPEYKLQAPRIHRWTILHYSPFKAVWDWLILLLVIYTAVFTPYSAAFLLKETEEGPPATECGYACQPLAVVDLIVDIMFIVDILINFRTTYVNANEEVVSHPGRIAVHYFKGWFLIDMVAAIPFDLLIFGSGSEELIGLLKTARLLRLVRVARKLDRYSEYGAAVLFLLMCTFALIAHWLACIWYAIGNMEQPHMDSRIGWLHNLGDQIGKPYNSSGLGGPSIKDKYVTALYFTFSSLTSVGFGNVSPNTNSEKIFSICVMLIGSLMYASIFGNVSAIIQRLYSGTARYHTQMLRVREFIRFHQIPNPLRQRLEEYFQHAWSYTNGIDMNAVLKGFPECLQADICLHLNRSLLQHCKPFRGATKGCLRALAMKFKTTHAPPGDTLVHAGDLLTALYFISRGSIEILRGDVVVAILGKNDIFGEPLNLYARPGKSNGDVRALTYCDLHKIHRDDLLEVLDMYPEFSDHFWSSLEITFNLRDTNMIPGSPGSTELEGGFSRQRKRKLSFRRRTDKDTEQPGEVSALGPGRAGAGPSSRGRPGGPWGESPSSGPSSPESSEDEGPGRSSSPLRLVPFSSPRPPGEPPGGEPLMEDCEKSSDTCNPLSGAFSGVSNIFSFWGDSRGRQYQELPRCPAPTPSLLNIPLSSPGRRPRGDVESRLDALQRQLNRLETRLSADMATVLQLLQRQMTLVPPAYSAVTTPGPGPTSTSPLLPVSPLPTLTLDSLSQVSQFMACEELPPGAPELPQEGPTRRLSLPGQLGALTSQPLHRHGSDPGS

Question: With `C[C@]1(c2cc(NC(=O)c3ccc(Cl)cn3)ccc2F)N=C(N)O[C@@H]2CC(F)(F)C[C@@H]21` [Example 1, 5-Chloro-pyridine-2-carboxylic acid [3-((4S,4aR,7aR)-2-amino-6,6-difluoro-4-methyl-4,4a,5,6,7,7a-hexahydro-cyclopenta[e][1,3]oxazin-4-yl)-4-fluoro-phenyl]-amide] as the molecule, how does the “GSH human (glutathione adduct formation)” value [1] read?
Answer: NF

Question: What about the IC50 (BACE1) of the same molecule?
Answer: 0.0004 µM

Question: And the IC50 (CYP2D6)?
Answer: 1 to 10 µM

Question: What about the IC50 (CYP2C9) of the same molecule?
Answer: > 10 µM

Question: And the IC50 [2]?
Answer: 52 µM

Question: And the in vivo effect (in vivo effect)?
Answer: A (less than 50% of control @ 30 mg/kg p.o.)

Question: And the IC50 [3]?
Answer: 133 µM

Question: And the IC50 (CYP3A4)?
Answer: > 10 µM

Question: What does the source list for `C[C@]1(c2cc(NC(=O)c3ccc(C#N)cn3)ccc2F)N=C(N)O[C@@H]2CC(F)(F)C[C@@H]21` [Example 2, 5-Cyano-pyridine-2-carboxylic acid [3-((4S,4aR,7aR)-2-amino-6,6-difluoro-4-methyl 4,4a,5,6,7,7a-hexahydro-cyclopenta[e][1,3]oxazin-4-yl)-4-fluoro-phenyl]-amide]?
Answer: GSH human (glutathione adduct formation) [1]: NF; IC50 (CYP2D6): > 10 µM; IC50 (CYP2C9): > 10 µM; hERG inhibition (hERG channel): A (less than 20% inhibition @ 1 μM); IC50 [2]: 120 µM; in vivo effect (in vivo effect): A (less than 50% of control @ 30 mg/kg p.o.); IC50 [3]: 101 µM; IC50 (CYP3A4): > 10 µM
